Positions of bridges follow the written chain, without caps; N, C: chain ends. Residues, ends and D or L forms follow the SMILES beside them.
The compounds below were run against human BACE1 (rhBACE1) (Homo sapiens, UniProt P56817) (assay: Caliper BACE1 activity assay (microfluidic capillary electrophoresis)). Settings: 12 nM rhBACE1, 1 μM FAM-substrate, pH 4.4.
Type: biochemical
Set-up: containing human BACE1 (extracellular domain)
Experimental: An MCE assay reactions can be carried out in a standard enzymatic reaction, initiated by the addition of substrate to enzyme and 4× compound, containing human BACE1 (extracellular domain), amyloid precursor protein beta secretase active site peptide (FAM-[…]-CONH2 (SEQ ID NO: 20)), 50 mM NaOAc pH 4.4 and 0.1% CHAPS. After incubation for 60 minutes at ambient temperature, the product and substrate in each reaction is separated using a 12-sipper microfluidic chip analyzed on an LC3000® (both, Caliper Life Sciences). The separation of product and substrate is optimized by choosing voltages and pressure using the manufacturer's optimization software. Substrate conversion is calculated from the electrophoregram using HTS Well Analyzer software (Caliper Life Sciences).
BACE1, BACE2 and Cathepsin D Activity Assay Using Microfluidic Capillary Electrophoresis (MCE).
BACE1, BACE2, and Cathepsin D reactions were carried out in a final volume of 20 μl per well in a 384-well microplate using a Caliper LabChip 3000 (Hopkinton, Mass.). A standard enzymatic reaction, initiated by the addition of 10 μ12× substrate to 5 μl of 4× enzyme and 5 μl of 4× peptide or small molecule inhibitor, contained 12 nM rhBACE1, 1 μM FAM-[…]-amide (SEQ ID NO: 20), 50 mM NaOAc, pH 4.4, 0.1% CHAPS. The same reaction conditions were used for rhBACE2 (5 nM) and Cathepsin D (6 nM) (Cat. No. 219394; EMD Biosciences, San Diego, Calif.). After incubation for 60 min at room temperature, the product and substrate in each reaction were separated using a 12-sipper microfluidic chip. Separation of product and substrate was optimized by choosing voltages and pressure using the Caliper Optimizer software. The separation buffer contained 100 mM HEPES, pH 7.2, 0.015% Brij-35, 0.1% Coating Reagent #3, 10 mM EDTA and 5% DMSO. The separation conditions used a downstream voltage of −500 V, an upstream voltage of −2250 V, and a screening pressure of −1.2 psi. The product and substrate fluorescence was excited at 488 nm and detected at 530 nm. Substrate conversion was calculated from the electrophoregram using the Caliper HTS Well Analyzer software.

human BACE1 (rhBACE1), sequence (P56817 46-457 limits assumed): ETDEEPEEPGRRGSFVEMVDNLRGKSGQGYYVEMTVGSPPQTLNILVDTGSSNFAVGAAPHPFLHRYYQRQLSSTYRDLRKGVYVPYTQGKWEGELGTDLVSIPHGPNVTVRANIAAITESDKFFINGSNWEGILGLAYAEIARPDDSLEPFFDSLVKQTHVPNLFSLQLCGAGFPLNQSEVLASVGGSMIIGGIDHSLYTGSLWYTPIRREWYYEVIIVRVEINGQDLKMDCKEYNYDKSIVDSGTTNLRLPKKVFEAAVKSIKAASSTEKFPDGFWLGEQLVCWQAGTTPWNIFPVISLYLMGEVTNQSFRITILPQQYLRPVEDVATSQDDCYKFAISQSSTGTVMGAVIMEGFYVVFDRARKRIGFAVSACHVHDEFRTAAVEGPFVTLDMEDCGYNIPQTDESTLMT

**Q.** With CC[C@H](C)[C@@H]1NC(=O)CNC(=O)[C@H](CC(C)C)NC(=O)[C@H](CC(C)C)NC(=O)[C@H](CCCNC(=N)N)NC(=O)[C@@H](NC(=O)[C@H](Cc2ccc(O)cc2)NC(=O)[C@H](CCSC)NC(=O)[C@H](CO)NC(=O)[C@H](CCC(=O)O)NC(=O)[C@H](CCC(=O)O)NC(=O)[C@H](C)NC(C)=O)CSSC[C@@H](C(=O)NCC(N)=O)NC(=O)CNC1=O [BACE042] (Ac-AEESMYCRLLGIGCG-NH2; disulfide 7-14) as the compound, how does the IC50 read?
**A.** 0.012 ± 0.008 µM

**Q.** Which IC50 does the source give for CC[C@H](C)[C@@H]1NC(=O)CNC(=O)[C@H](CC(C)C)NC(=O)[C@H](CC(C)C)NC(=O)[C@H](CCCNC(=N)N)NC(=O)[C@@H](NC(=O)[C@H](Cc2ccc(O)cc2)NC(=O)[C@H](CCSC)NC(=O)[C@H](CO)NC(=O)[C@H](CCC(=O)O)NC(=O)[C@H](C)NC(=O)[C@H](CC(N)=O)NC(C)=O)CSSC[C@@H](C(=O)NCC(N)=O)NC(=O)CNC1=O [BACE043] (Ac-NAESMYCRLLGIGCG-NH2; disulfide 7-14) here?
**A.** 0.013 ± 0.002 µM

**Q.** Which IC50 does the source give for CC[C@H](C)[C@@H]1NC(=O)[C@H](C)NC(=O)[C@H](CC(C)C)NC(=O)[C@H](CC(C)C)NC(=O)[C@H](CCCNC(=N)N)NC(=O)[C@@H](NC(=O)[C@H](Cc2ccc(O)cc2)NC(=O)[C@H](CCSC)NC(=O)[C@H](CO)NC(=O)[C@H](CCC(=O)O)NC(=O)[C@H](CCC(=O)O)NC(=O)[C@H](CC(N)=O)NC(C)=O)CSSC[C@@H](C(=O)NCC(N)=O)NC(=O)CNC1=O [BACE051] (Ac-NEESMYCRLLAIGCG-NH2; disulfide 7-14) here?
**A.** 0.018 ± 0.005 µM

**Q.** How did the IC50 turn out when CC[C@H](C)[C@@H]1NC(=O)CNC(=O)[C@H](CC(C)C)NC(=O)[C@H](CC(C)C)NC(=O)[C@H](CCCNC(=N)N)NC(=O)[C@@H](NC(=O)[C@H](Cc2ccc(O)cc2)NC(=O)[C@H](CCSC)NC(=O)[C@H](CO)NC(=O)[C@H](CCC(=O)O)NC(=O)[C@H](CCC(=O)O)NC(=O)[C@H](CC(N)=O)NC(C)=O)CSSC[C@@H](C(=O)NCC(N)=O)NC(=O)[C@H](C)NC1=O [BACE053] (Ac-NEESMYCRLLGIACG-NH2; disulfide 7-14) was run?
**A.** 0.007 µM

**Q.** How did the IC50 turn out when CC[C@H](C)[C@@H]1NC(=O)CNC(=O)[C@H](CC(C)C)NC(=O)[C@H](CC(C)C)NC(=O)[C@H](CCCNC(=N)N)NC(=O)[C@@H](NC(=O)[C@H](Cc2ccccc2)NC(=O)[C@H](CCSC)NC(=O)[C@H](CO)NC(=O)[C@H](CCC(=O)O)NC(=O)[C@H](CCC(=O)O)NC(=O)[C@H](CC(N)=O)NC(C)=O)CSSC[C@@H](C(=O)NCC(N)=O)NC(=O)CNC1=O [BACE055] (Ac-NEESMFCRLLGIGCG-NH2; disulfide 7-14) was run?
**A.** 0.011 ± 0.002 µM

**Q.** With CC[C@H](C)[C@@H]1NC(=O)CNC(=O)[C@H](CC(C)C)NC(=O)[C@H](CC(C)C)NC(=O)[C@H](CCCNC(=N)N)NC(=O)[C@@H](NC(=O)[C@H](Cc2ccc(O)cc2)NC(=O)[C@H](CCSC)NC(=O)[C@H](Cc2c[nH]cn2)NC(=O)[C@H](CCC(=O)O)NC(=O)[C@H](CCC(=O)O)NC(=O)[C@H](CC(N)=O)NC(C)=O)CSSC[C@@H](C(=O)NCC(N)=O)NC(=O)CNC1=O [BACE056] (Ac-NEEHMYCRLLGIGCG-NH2; disulfide 7-14) as the compound, how does the IC50 read?
**A.** 3.57 ± 3.65 µM

— patent publication US9624269B2, “Peptide inhibitors of BACE1” (GENENTECH, INC., priority 2011, dated 2017)
